How the values were obtained:
MIA PaCa-2 cells = settings: read-out: IC50 MIA PaCa-2; human pancreatic carcinoma cell, 72 h, mean ± SE (n = 3)
Description: (§1) With a range of chromophore analogues in hand, their toxicity to SW620 cells was investigated by WST assays.
(§2) Basically, the evaluation was performed using methods previously reported by our group[20],[23]. Cytotoxic activities of compounds against MIA PaCa-2 (American Type Culture Collection), SW620 (European Collection of Authenticated Cell Cultures) were measured by WST-8 assay according to manufacturer’s protocol. Briefly, cells (1 × 10^4 cells/well) in a 96-well plate were cultured in medium (for MIA PaCa-2, D-MEM (Wako, Japan) containing 10% fetal bovine serum (Funakoshi, Japan), 100 units/mL penicillin G and 100 µg/mL streptomycin (Wako, Japan), for SW620, RPMI-1640 (Wako, Japan) containing 10% fetal bovine serum, 100 units/mL penicillin G and 100 µg/mL streptomycin) were cultured at 37 °C for 24 h under 5% CO2 atmosphere. Then, cells were treated with test compounds (final DMSO concentration was 1%) at 37 °C for 72 h under 5% CO2 atmosphere. Then, cells were treated with a solution of Cell Counting Kit-8® (Dojindo, Japan) for 3 h. After that, cell viabilities were determined based on the measurement of absorption at 450 nm of the wells by using TECAN Infinite® M200 microplate reader. The results were expressed as a percentage of the negative control (cells treated with DMSO only), and that value was fixed at 100%.

[1] = Serum biochemistry / blood examination of treated mice; format: in vivo; settings: 0.4 µg/mouse i.p., Day 14
Description: (§3) Toxicity Body weight change is an indicator of systemic toxicity. Accordingly, the body weights of mice intraperitoneally treated with different doses (0.04 and 0.4 µg/mouse) of either 1 or 3 were measured (Fig. S1). […] A blood hematological examination (including nineteen parameters) was also conducted on these mice on Day 14 (Fig. S2). There were no significant changes in almost any of the parameters in the mice treated with either 1 or 3 at doses of 0.04 or 0.4 µg/mouse.
Male BALB/c mice (7 weeks old) were purchased from Charles River Laboratories Japan, Inc. Each compound was intraperitoneally injected daily for 14 days. […] Serum was collected by centrifuging blood at 5000 rpm for 10 min. Biochemistry was performed in Oriental Yeast Co., Ltd, Japan.

[2] = Hepatic microsomal stability assay, human; format: in vitro ADME; settings: 30 min; for CLint scaled: microsomes, 1 μM; for CLint scaled / CLint scaled at 1 μM: 0.2 mg/mL microsomes, 37 °C; for CLint scaled at 1 μM: human liver microsomes, pH 7.4, 1 μM
Description: (§4) Before investigating the in vivo efficacy of 3, its metabolic stability was evaluated by treatment with human or mouse liver microsomes at 37 °C for 30 min, and the remaining analogues were analyzed by LC–MS/MS (Table 3). […] This means that approximately 67% of 3 was unaffected by human liver microsomes.
(§5) Basically, the analysis was performed using methods previously reported. Disappearance of the parent compound over time was measured by using the amount of drug at time zero as a reference. After 5 min of preincubation, 1 mM NADPH (final concentration, the same applies to the following, NADPH( +)) or 0.1 M phosphate buffer (pH 7.4, NADPH(−))) was added to a mixture containing 1 μM of the test compound, 0.2 mg/mL of human or mouse liver microsomes (Sekisui XenoTech LLC (Kansas City, KS)), 1 mM EDTA and 0.1 M phosphate buffer (pH 7.4) and incubated at 37 °C for 30 min by rotation at 60 rpm. An aliquot of 50 μL of the incubation mixture was sampled and added to 250 μL of chilled acetonitrile/internal standard (IS). After centrifuging for 15 min at 3150×g (4 °C), the supernatants were analyzed by LC–MS/MS. Hepatic microsomal stability (mL/min/kg, CLint) was calculated according to the previous report, using 48.8 and 45.4 mg MS protein/g liver and 25.7 and 87.5 g liver/kg body weight as scaling factors for human and mouse, respectively.
(§6) Basically, the analysis was performed using methods previously reported. An LC-MS8060 instrument equipped with a Shimadzu Nexera series LC system (Shimadzu, Kyoto, Japan) was used. All compounds were analyzed in multi-reaction monitoring mode under electron spray ionization conditions. The analytical column used was a […] C18 MGIII (3 μm × 2.0 mmID × 35 mm; OSAKA SODA, Osaka, Japan) at 50 °C. The gradient mobile phase consisted of 0.1% formic acid in water (mobile phase A,) and 0.1% formic acid in acetonitrile (mobile phase B) at a total flow rate of 1 mL/min. The initial mobile phase composition was 10% B, which was held constant for 0.2 min, increased in a linear fashion to 90% B over 1 min, then held constant for 0.8 min, and finally brought back to the initial condition of 10% B over 0.01 min and re-equilibrated for 1 min. The transitions (precursor ion > product ion) of echinomycin, 3 and IS (methyl testosterone) are 1101.45 > 1053.5 (positive), 1083.5 > 523.95 (negative), and 303.1 > 109.1 (positive), respectively.

[3] = Investigation of maximum tolerated dose (body weight of mice); format: in vivo, mouse; settings: 14 days
Description: as §3

SW620 cells = experiment: WST-8 cytotoxicity assay, SW620; settings: for IC50: read-out: IC50 SW620, human colon cancer cell, 72 h, mean ± SE (n = 3)
Description: as §1, §2

[4] = Hepatic microsomal stability assay, mouse; format: in vitro ADME; settings: 0.2 mg/mL microsomes, 37 °C, 30 min; for CLint scaled: microsomes, 1 μM; for CLint scaled at 1 μM: mouse liver microsomes, pH 7.4, 1 μM
Description: as §4, §5, §6

[5] = NADPH(+), read-out: Metabolic stability (CLint) Human NADPH(+)
[6] = NADPH(−), read-out: Metabolic stability (CLint) Human NADPH(−)
[7] = NADPH(+), read-out: Metabolic stability (CLint) Mouse NADPH(+)
[8] = NADPH(−), read-out: Metabolic stability (CLint) Mouse NADPH(−)

| SMILES | IC50 (MIA PaCa-2 cells) | IC50 (SW620 cells) | also measured |
| --- | --- | --- | --- |
| CC(C)[C@H]1C(=O)OC[C@@H](NC(=O)c2nc3ccccc3cc2O)C(=O)N[C@@H](C)C(=O)N(C)[C@H]2CSC[C@@H](C(=O)N1C)N(C)C(=O)[C@H](C)NC(=O)[C@H](NC(=O)c1nc3ccccc3cc1O)COC(=O)[C@H](C(C)C)N(C)C2=O [Compound 3] | 0.0014 ± 0.0001 µM | 0.00085 ± 0.00013 µM | alanine aminotransferase (ALT) [1]: increase; aspartate aminotransferase (AST) [1]: increase; lactate dehydrogenase (LDH) [1]: increase; total bilirubin (T-BIL) [1]: decrease; remaining at 0.5 h, 1 μM ([2]; liver microsomes, pH 7.4, 37 °C, in the presence of NADPH, read-out: fraction unaffected by human liver microsomes): ~67%; CLint scaled [2, 5]: 83.7 mL/min/kg; CLint scaled [2, 6]: 45.1 mL/min/kg; body weight ([3]; i.p. 0.04 and 0.4 µg/mouse, daily): did not differ greatly from those of the control; dose up to which no significant toxicity is shown ([3]; i.p. daily, body weight and blood examination): ≥ 0.04 µg/mouse; maximum tolerated dose ([3]; i.p. daily, expected): 0.04 µg/mouse; CLint scaled [4, 7]: 386 mL/min/kg; CLint scaled [4, 8]: 118 mL/min/kg |
| CC(C)[C@H]1C(=O)OC[C@@H](NC(=O)c2ccc3cc[nH]c3c2)C(=O)N[C@@H](C)C(=O)N(C)[C@H]2CSC[C@@H](C(=O)N1C)N(C)C(=O)[C@H](C)NC(=O)[C@H](NC(=O)c1ccc3cc[nH]c3c1)COC(=O)[C@H](C(C)C)N(C)C2=O [Compound 11, {N-(Indol-6-carbonyl)-D-Ser-L-Ala-N-Boc-N-Me-L-Cys-N-Me-L-Val}2 sulfide] | > 10 µM | > 10 µM | – |
| CC(C)[C@H]1C(=O)OC[C@@H](NC(=O)c2cccc3cc[nH]c23)C(=O)N[C@@H](C)C(=O)N(C)[C@H]2CSC[C@@H](C(=O)N1C)N(C)C(=O)[C@H](C)NC(=O)[C@H](NC(=O)c1cccc3cc[nH]c13)COC(=O)[C@H](C(C)C)N(C)C2=O [Compound 12, {N-(Indol-7-carbonyl)-D-Ser-L-Ala-N-Boc-N-Me-L-Cys-N-Me-L-Val}2 sulfide] | > 10 µM | > 10 µM | – |
| CC(C)[C@H]1C(=O)OC[C@@H](NC(=O)c2cc3ccccc3o2)C(=O)N[C@@H](C)C(=O)N(C)[C@H]2CSC[C@@H](C(=O)N1C)N(C)C(=O)[C@H](C)NC(=O)[C@H](NC(=O)c1cc3ccccc3o1)COC(=O)[C@H](C(C)C)N(C)C2=O [Compound 13, {N-(Benzofurane-2-carbonyl)-D-Ser-L-Ala-N-Boc-N-Me-L-Cys-N-Me-L-Val}2 sulfide] | > 10 µM | > 10 µM | – |
| CC(C)[C@H]1C(=O)OC[C@@H](NC(=O)c2cc3ccccc3s2)C(=O)N[C@@H](C)C(=O)N(C)[C@H]2CSC[C@@H](C(=O)N1C)N(C)C(=O)[C@H](C)NC(=O)[C@H](NC(=O)c1cc3ccccc3s1)COC(=O)[C@H](C(C)C)N(C)C2=O [Compound 14, {N-(Benzothiophene-2-carbonyl)-D-Ser-L-Ala-N-Boc-N-Me-L-Cys-N-Me-L-Val}2 sulfide] | > 10 µM | > 10 µM | – |
| CC(C)[C@H]1C(=O)OC[C@@H](NC(=O)c2ccc3ocnc3c2)C(=O)N[C@@H](C)C(=O)N(C)[C@H]2CSC[C@@H](C(=O)N1C)N(C)C(=O)[C@H](C)NC(=O)[C@H](NC(=O)c1ccc3ocnc3c1)COC(=O)[C@H](C(C)C)N(C)C2=O [Compound 15, {N-(Benzoxazole-5-carbonyl)-D-Ser-L-Ala-N-Boc-N-Me-L-Cys-N-Me-L-Val}2 sulfide] | > 10 µM | > 10 µM | – |
| CC(C)[C@H]1C(=O)OC[C@@H](NC(=O)c2ccc3ncoc3c2)C(=O)N[C@@H](C)C(=O)N(C)[C@H]2CSC[C@@H](C(=O)N1C)N(C)C(=O)[C@H](C)NC(=O)[C@H](NC(=O)c1ccc3ncoc3c1)COC(=O)[C@H](C(C)C)N(C)C2=O [Compound 16, {N-(Benzoxazole-6-carbonyl)-D-Ser-L-Ala-N-Boc-N-Me-L-Cys-N-Me-L-Val}2 sulfide] | > 10 µM | > 10 µM | – |
| CC(C)[C@H]1C(=O)OC[C@@H](NC(=O)c2ccc3ncsc3c2)C(=O)N[C@@H](C)C(=O)N(C)[C@H]2CSC[C@@H](C(=O)N1C)N(C)C(=O)[C@H](C)NC(=O)[C@H](NC(=O)c1ccc3ncsc3c1)COC(=O)[C@H](C(C)C)N(C)C2=O [Compound 17] | > 10 µM | > 10 µM | – |
| CC(C)[C@H]1C(=O)OC[C@@H](NC(=O)c2ccc(C(=O)c3ccccc3)cc2)C(=O)N[C@@H](C)C(=O)N(C)[C@H]2CSC[C@@H](C(=O)N1C)N(C)C(=O)[C@H](C)NC(=O)[C@H](NC(=O)c1ccc(C(=O)c3ccccc3)cc1)COC(=O)[C@H](C(C)C)N(C)C2=O [Compound 18, {N-(4-Benzoylphenylcarbonyl)-D-Ser-L-Ala-N-Boc-N-Me-L-Cys-N-Me-L-Val}2 sulfide] | > 10 µM | > 10 µM | cytotoxicity to SW620 cells (in words) (SW620 cells): lost their cytotoxicity |
| CC(C)[C@H]1C(=O)OC[C@@H](NC(=O)c2ccc3c(c2)C(=O)c2ccccc2C3=O)C(=O)N[C@@H](C)C(=O)N(C)[C@H]2CSC[C@@H](C(=O)N1C)N(C)C(=O)[C@H](C)NC(=O)[C@H](NC(=O)c1ccc3c(c1)C(=O)c1ccccc1C3=O)COC(=O)[C@H](C(C)C)N(C)C2=O [Compound 19, {N-(Anthraquinone-2carbonyl)-D-Ser-L-Ala-N-Boc-N-Me-L-Cys-N-Me-L-Val}2 sulfide] | > 10 µM | > 10 µM | cytotoxicity to SW620 cells (in words) (SW620 cells): lost their cytotoxicity |
| Cc1ncc2n1-c1ccc(Cl)cc1C(c1ccccc1F)=NC2 [Midazolam] | – | – | CLint scaled at 1 μM [2, 5]: 435 mL/min/kg; CLint scaled at 1 μM [2, 6]: < 22 mL/min/kg; CLint scaled at 1 μM [4, 7]: 4010 mL/min/kg; CLint scaled at 1 μM [4, 8]: < 69.8 mL/min/kg |

— PMC10985088, “Synthesis and biological evaluation of echinomycin analogues as potential colon cancer agent” (Scientific Reports, 2024)
